# Experimental data taken from patent US7101878B1 (Agouron Pharmaceuticals, Inc., priority 1998, dated 2006).
# Read-outs that look alike come from different tables or passages of the source.
# Experiments:
# rat GnRH receptor = target: T1, rat GnRH receptor (Rattus norvegicus, UniProt P30969); test: Radioligand binding, 125I-GnRH-A, rat pituitary membranes; set-up: membranes were prepared from rat pituitary; from tissue; host or cells: rat pituitary
# T1 sequence (P30969 1-327): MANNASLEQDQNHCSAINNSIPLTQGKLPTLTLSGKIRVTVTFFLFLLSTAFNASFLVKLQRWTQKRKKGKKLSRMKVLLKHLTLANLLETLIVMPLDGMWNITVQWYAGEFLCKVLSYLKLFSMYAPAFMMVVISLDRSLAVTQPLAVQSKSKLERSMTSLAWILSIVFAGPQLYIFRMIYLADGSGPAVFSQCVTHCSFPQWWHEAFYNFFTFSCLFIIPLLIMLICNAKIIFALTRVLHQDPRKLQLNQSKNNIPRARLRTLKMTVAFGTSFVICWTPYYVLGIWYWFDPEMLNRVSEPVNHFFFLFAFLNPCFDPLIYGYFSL
# Outline: (§1)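 Bound label captured on 0.1% polyethyleneimine-treated GF/C filters, washed three times with PBS, counted. IC50 derived; identical set-up for every species.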
# human GnRH receptor = target: T2, human GnRH receptor (Homo sapiens, UniProt P30968); test: Radioligand binding, 125I-GnRH-A displacement, membranes of HEK 293 cells with human GnRH receptor
# T2 construct: expressed in transfected cells; host or cells: HEK 293 (hGnRH-R/293, from Dr. Stuart Sealfon)
# T2 sequence (P30968 1-328): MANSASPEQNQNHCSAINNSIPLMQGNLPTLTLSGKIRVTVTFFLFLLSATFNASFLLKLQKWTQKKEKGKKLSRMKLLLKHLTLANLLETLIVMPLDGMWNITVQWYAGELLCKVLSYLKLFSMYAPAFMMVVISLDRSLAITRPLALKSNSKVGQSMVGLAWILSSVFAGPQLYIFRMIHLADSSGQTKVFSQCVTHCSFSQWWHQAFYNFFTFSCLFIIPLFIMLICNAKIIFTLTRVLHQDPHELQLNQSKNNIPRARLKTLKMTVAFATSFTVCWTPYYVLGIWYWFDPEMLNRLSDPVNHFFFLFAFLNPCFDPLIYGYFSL
# Outline: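 After filtration and PBS washes, bound radioactivity was counted by scintillation and IC50 derived. Identical conditions applied for non-human receptors.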
# mouse GnRH receptor = target: T3, mouse GnRH receptor (Mus musculus, UniProt Q01776); test: Radioligand binding, 125I-GnRH-A, 293 cells expressing mouse GnRH receptors
# T3 construct: expressed in transfected cells; host or cells: 293 cells
# T3 sequence (Q01776 1-327): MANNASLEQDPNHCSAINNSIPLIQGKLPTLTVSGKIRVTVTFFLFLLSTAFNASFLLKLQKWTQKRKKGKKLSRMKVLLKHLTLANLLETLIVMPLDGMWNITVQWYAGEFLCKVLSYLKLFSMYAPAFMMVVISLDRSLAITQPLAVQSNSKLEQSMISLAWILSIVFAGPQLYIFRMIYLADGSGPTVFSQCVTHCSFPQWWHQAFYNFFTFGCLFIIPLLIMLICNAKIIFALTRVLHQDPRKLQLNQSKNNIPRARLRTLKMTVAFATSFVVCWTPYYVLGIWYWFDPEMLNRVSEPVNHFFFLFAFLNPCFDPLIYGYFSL
# Outline: as §1
# bovine GnRH receptor = target: T4, bovine GnRH receptor (Bos taurus, UniProt P32236); test: Radioligand binding, 125I-GnRH-A, bovine pituitary membranes
# T4 construct: membranes were prepared from bovine pituitary; from tissue; host or cells: bovine pituitary
# T4 sequence (P32236 1-328): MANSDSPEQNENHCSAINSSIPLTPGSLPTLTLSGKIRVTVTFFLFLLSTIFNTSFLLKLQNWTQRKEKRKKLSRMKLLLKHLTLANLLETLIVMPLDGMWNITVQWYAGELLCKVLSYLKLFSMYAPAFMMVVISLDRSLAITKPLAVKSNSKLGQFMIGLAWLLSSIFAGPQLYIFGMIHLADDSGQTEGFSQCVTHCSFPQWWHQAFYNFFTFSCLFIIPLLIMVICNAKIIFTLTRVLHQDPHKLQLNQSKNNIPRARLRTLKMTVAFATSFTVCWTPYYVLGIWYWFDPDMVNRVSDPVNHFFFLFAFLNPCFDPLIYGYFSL
# Method: All compounds were diluted in 1% DMSO (final assay concentration) in binding assay buffer. […] Reactions were terminated by rapid filtration onto 96-well Packard GF/C filters soaked in 0.1% polyethyleneimine. Filters were washed three times with PBS buffer, dried and counted on a Packard Topcount by liquid scintillation counting.
# Assay conditions were identical for assessing compound activities at other species. […] IC50 values for control peptides and test compounds were calculated utilizing GraphPad Prism™ software.
# The reaction mixture was vortexed and incubated for 1 min at room temperature. After one min, the mixture was vortexed and allowed to incubate for an additional minute. 2 ml of 0.5 M acetic acid/1% BSA was added to the reaction tube and the mixture was added to a C18 Sep-Pak cartridge. The cartridge was washed with subsequent washes of 5 ml H2O and 5 ml 0.5M acetic acid and then eluted with 5×1 ml of 60% CH3CN/40% 0.5M acetic acid. The eluate was diluted with 3× volume of HPLC buffer A (0.1% TFA in H2O) and loaded onto a C18 column. […] The radioactive fractions (750 ed/fraction) are collected into clean polypropylene tubes containing 100 μl of 10% BSA. Fractions were assessed for biological activity by radioligand binding.
# [1] = Pharmacokinetic studies / bioavailability in rats; format: in vivo, rat; settings: male, rat, plasma, 10 mg/kg, rat male; for half-life: iv
# [2] = Metabolism rate, pmol/min/mg at 1 μM, human; format: in vitro ADME; settings: 1 μM compound
# [3] = Metabolism rate, pmol/min/mg at 1 μM, rat male; format: in vitro ADME; settings: 1 μM compound
# [4] = means ± SE of at least three experiments performed in duplicate, read-out: Rat IC50
# [5] = means ± SE of at least three experiments performed in duplicate, read-out: Human IC50
# [6] = means ± SE of at least three experiments performed in duplicate, read-out: Mouse IC50
# [7] = means ± SE of at least three experiments performed in duplicate, read-out: Bovine IC50
# [8] = po, p.o. 10 mg/kg, vehicle per footnote
# [9] = second value marked * (mostly in parentheses), asterisk not explained, read-out: hGnRH IC50, value marked *
IC50 (rat GnRH receptor; [4]) [nM],IC50 (rat GnRH receptor; read-out: rGnRH IC50) [nM],IC50 (human GnRH receptor; [5]) [nM],IC50 (human GnRH receptor; read-out: hGnRH IC50) [nM],IC50 (mouse GnRH receptor; [6]) [nM],IC50 (mouse GnRH receptor; read-out: mGnRH IC50) [nM],IC50 (bovine GnRH receptor; [7]) [nM],half-life [1] [min],"Cmax [1, 8] [nM]","Tmax [1, 8] [min]",IC50 (bovine GnRH receptor; read-out: bGnRH IC50) [nM],Human pmol/min/mg 1 μM [2] [pmol/min/mg],Rat male pmol/min/mg 1 μM [3] [pmol/min/mg],IC50 (human GnRH receptor; [9]) [nM],Compound
60 ± 15,60,80 ± 4,80,290 ± 70,290,1050 ± 30,84,1600,60,,,,,Cc1ccc(CNC(=O)c2ccc(Cc3cc4c(cc3C)C(C)(C)CCC4(C)C)o2)cc1 [Compound 14]
70 ± 16,,100 ± 17,290,220 ± 50,,1000 ± 240,,,,,,,,COc1cccc(CNC(=O)c2ccc(Cc3cc4c(cc3C)C(C)(C)CCC4(C)C)o2)c1OC [Compound 15]
560 ± 50,560,30 ± 6,30,1290 ± 210,1290,4380 ± 510,40,,,,,,,Cc1cc2c(cc1Cc1ccc(C(=O)NCC3CCC(C#N)CC3)o1)C(C)(C)CCC2(C)C (stereo not shown) [Compound 16]
30 ± 4,30,80 ± 20,80,80 ± 20,80,670 ± 120,132,,,,,,,Cc1cc2c(cc1Cc1ccc(C(=O)NCc3cccc(C)c3C)o1)C(C)(C)CCC2(C)C [Compound 17]
40 ± 3,40,55 ± 11,55,115 ± 25,115,460 ± 90,55,,,,,,,Cc1ccc(CNC(=O)c2ccc(Cc3cc4c(cc3C)C(C)(C)CCC4(C)C)o2)cc1C [Compound 18]
,60,50 ± 3,50,,160,,43,,,605,,,,CC(=O)c1cccc(NC(=O)c2ccc(Cc3cc4c(cc3C)C(C)(C)CCC4(C)C)o2)c1 [Compound 19]
,310,,540,,1100,,,,,1710,,,,Cc1cc2c(cc1Cc1ccc(C(=O)NCC3CCCC(CNC(=N)N)C3)o1)C(C)(C)CCC2(C)C (stereo not shown) [Compound 22]
,150,,550,,560,,,,,760,,,,Cc1cc2c(cc1Cc1ccc(C(=O)NCc3cccc(CNC(=N)N)c3)o1)C(C)(C)CCC2(C)C [Compound 24]
,260,,410,,950,,,,,940,,,,Cc1cc2c(cc1Cc1ccc(C(=O)NCc3ccc(CNC(=N)N)cc3)o1)C(C)(C)CCC2(C)C [Compound 25]
,220,,190,,830,,,,,2340,,,,Cc1cc2c(cc1Cc1ccc(C(=O)NCc3cccc(Cl)c3)o1)C(C)(C)CCC2(C)C [Compound 39]
,210,,140,,490,,,,,1400,185,1606,,Cc1cccc(CNC(=O)c2ccc(Cc3cc4c(cc3C)C(C)(C)CCC4(C)C)o2)c1 [Compound 41]
,100,,75,,280,,58,,,1780,361,1387,65,COc1ccc(CNC(=O)c2ccc(Cc3cc4c(cc3C)C(C)(C)CCC4(C)C)o2)cc1 [Compound 42]
,330,,320,,630,,,,,4000,,,130,Cc1cc2c(cc1Cc1ccc(C(=O)NCc3cccnc3)o1)C(C)(C)CCC2(C)C [Compound 43]
,510,,390,,610,,55,,,4440,459,1759,120,Cc1cc2c(cc1Cc1ccc(C(=O)NCc3cccs3)o1)C(C)(C)CCC2(C)C [Compound 44]
,900,,,,1880,,55,,,8700,485,1781,330,Cc1cc2c(cc1Cc1ccc(C(=O)NCc3ccccc3F)o1)C(C)(C)CCC2(C)C [Compound 46]
,150,,230,,370,,,,,1520,,,,Cc1ccccc1CNC(=O)c1ccc(Cc2cc3c(cc2C)C(C)(C)CCC3(C)C)o1 [Compound 50]
,120,,150,,400,,,,,1930,392,1877,,Cc1cc2c(cc1Cc1ccc(C(=O)NCc3ccccc3Cl)o1)C(C)(C)CCC2(C)C [Compound 51]
,270,,280,,660,,,,,2900,,,,Cc1cc2c(cc1Cc1ccc(C(=O)NCc3ccc(F)cc3F)o1)C(C)(C)CCC2(C)C [Compound 52]
,270,,250,,630,,,,,2930,,,,Cc1cc2c(cc1Cc1ccc(C(=O)NCc3cccc(F)c3)o1)C(C)(C)CCC2(C)C [Compound 53]
,60,,125,,34,,,,,380,,,,Cc1cc2c(cc1Cc1ccc(C(=O)Nc3cccc4ncccc34)o1)C(C)(C)CCC2(C)C [Compound 64]
,84,,130,,85,,,,,1440,278,4226,,COC(=O)c1ccc(OC)c(NC(=O)c2ccc(Cc3cc4c(cc3C)C(C)(C)CCC4(C)C)o2)c1 [Compound 72]
0.49 ± 0.1,,0.34 ± 0.06,,0.22 ± 0.03,,0.3 ± 0.05,,,,,,,,"CCNC(=O)[C@@H]1CCCN1C(=O)[C@H](CCCNC(=N)N)NC(=O)[C@H](CC(C)C)NC(=O)[C@@H](C)NC(=O)[C@H](Cc1ccc(O)cc1)NC(=O)[C@H](CO)NC(=O)[C@H](Cc1c[nH]c2ccccc12)NC(=O)[C@H](Cc1c[nH]cn1)NC(=O)[C@@H]1CCC(=O)N1 [GnRH-A, [des-Gly^10,D-Ala^6]GnRH ethylamide, reference compound]"
